Measurements: patent publication US20240325370A1, “THERAPEUTIC REGIMENS OF A DEGRADER OF BRD9” (FOGHORN THERAPEUTICS INC., priority 2021, published 2024)
“Also recorded” adds a separate entry of the source. Blank lines part the entries; values can stand above or below the compound they belong to.

Key:
endogenous BRD9 = target: T1, endogenous BRD9 (Homo sapiens, UniProt Q9H8M2); test: Western blot dose response of endogenous BRD9 degradation in cancer cell lines of different lineage; type: cell-based; details: for potency of endogenous BRD9 degradation (western blot): 6 hours
T1 sequence (Q9H8M2 1-597): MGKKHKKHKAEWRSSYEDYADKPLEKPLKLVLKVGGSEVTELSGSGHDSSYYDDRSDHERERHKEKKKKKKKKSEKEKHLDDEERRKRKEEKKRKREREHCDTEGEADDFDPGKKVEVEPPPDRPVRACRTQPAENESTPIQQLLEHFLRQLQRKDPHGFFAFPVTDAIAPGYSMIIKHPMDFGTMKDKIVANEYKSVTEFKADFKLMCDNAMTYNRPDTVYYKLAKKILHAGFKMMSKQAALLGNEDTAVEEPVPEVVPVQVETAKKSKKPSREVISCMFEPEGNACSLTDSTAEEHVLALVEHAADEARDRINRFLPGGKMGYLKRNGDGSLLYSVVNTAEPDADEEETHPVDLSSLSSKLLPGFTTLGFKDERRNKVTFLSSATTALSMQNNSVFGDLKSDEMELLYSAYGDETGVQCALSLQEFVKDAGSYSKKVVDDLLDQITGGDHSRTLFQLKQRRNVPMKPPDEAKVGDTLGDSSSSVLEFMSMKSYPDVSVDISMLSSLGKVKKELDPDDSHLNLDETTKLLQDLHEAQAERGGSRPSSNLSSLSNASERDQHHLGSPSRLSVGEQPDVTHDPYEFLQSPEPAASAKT
Protocol: Compound D1 and Compound S-D1 Dose Response Experiments in Multiple Cell Lines of Different Lineage. To evaluate the efficacy of compound S-D1 ((S)-enantiomer) and compound D1 (racemic) to degrade BRD9 across different cancer lineages (listed in Table 19), dose response experiments were performed in SYO-1, EOL-1, MD-MBA-231, OVCAR8, and PC-9 cell lines. After cell treatment, BRD9 protein levels were assessed by western blot analyses.
Cells grown in flasks to log phase growth were washed with PBS and dissociated by adding TrypLE™ Express (Foghorn) or Trypsin-EDTA 0.25% (Pharmaron). Collected cells were resuspended in their respective cell culture media, counted, and seeded at the indicated cell density in 6-well plates. Two wells were allocated per sample. Plates were incubated at 37° C. with 5% CO2 overnight.
The next day, compound was added to a final concentration as indicted in FIGS. 32B, 32C, and 32D with 3-fold dilution steps, with the final DMSO content of 0.1% (v/v) matching the untreated control. After 6 hours of incubation, cells were harvested, resuspended in PBS, and centrifuged at 5,000 rpm for 5 minutes. After being washed twice with PBS, the resulting cell pellets were stored at −80° C.
Cell lines and cell treatment procedures are highlighted in Table 19 and specific details about western blot procedures are listed in Table 20. The western blot procedure was as described above.

SYO-1 tumor = test: Intermittent dosing schedules, IV, SYO-1 xenograft efficacy; type: in vivo, mice; details: for Tumor Size (mm^3) on Day 24: SYO-1 tumor-bearing NOD SCID mice, Mean ± SEM
Protocol: The objective of this study was to provide proof-of-concept of anti-tumor efficacy with intermittent dosing schedules for compound S-D1 by IV administration. Groups of female SYO-1 tumor-bearing NOD SCID mice (n=10/group) were dosed IV with vehicle, compound D1 or compound S-D1 for 24 days according to treatments and dosing schedules shown in Table 10. Compound D1 was formulated in 10% DMSO/40% PEG400/50% water and compound S-D1 was formulated in 20% SBECD in 5 mM citrate buffer, final pH was adjusted to 5 with 1 N NaOH. For the compound S-D1 treatment groups, plasma samples were collected at designated time points following the last dosing. Plasma samples were acidified to stabilize the compound right after collection and analyzed for compound S-D1 concentrations.

BRD9 = target: T2, BRD9 (Homo sapiens, UniProt Q9H8M2); test: Pharmacodynamic activity in SYO-1 xenograft model (tumor BRD9 western blot); type: in vivo, mice; set-up: from tissue; host or cells: SYO-1 xenograft tumours in BALB/c nude or NOD SCID mice; details: for BRD9 protein levels depleted by: 20% SBECD
T2 sequence (Q9H8M2 1-597): T1 sequence (Q9H8M2 1-597)
Protocol: Method. The SYO-1 tumor cells were maintained in vitro as adherent cells in Dulbecco's Modified Eagle Medium (DMEM) supplemented with 10% fetal bovine serum at 37° C. in an atmosphere of 5% CO2 in air. The cells growing in an exponential growth phase were harvested and counted for tumor inoculation. BALB/c Nude mice (Shanghai Lingchang biological science) were inoculated subcutaneously on the right flank with (5×10^6) in 0.1 mL of phosphate buffered saline (PBS). The treatment-(described in table 6)—was started on day 19 after tumor inoculation, when the average tumor size reached 499 mm^3.
Mice were treated with racemic D1, 1 mg/kg, i.p. for 4 weeks, mice were euthanized, and tumors collected 1, 4, 8, 24, 48 and 72-hour post last dose. Tumors were lysed with 1×RIPA lysis buffer (Boston BioProducts, BP-115D) with protease and phosphatase protein inhibitor (Roche Applied Science #04906837001 & 05892791001). Equal amount of lysate (30 ug) were loaded in 4-12% Bis-Tris Midi Protein Gels in 1×MOPS buffer; samples ran at 120 V for 120 min. Proteins was transferred to membrane (NC) with TransBlot at 250 mA for 150 minute, then membranes were blocked with Odyssey Blocking buffer for 1 hour at room temperature. Membranes were hybridized overnight in cold room with primary antibodies. Images acquired using Li-COR imaging system (Li-COR Biotechnology, Lincoln, Nebraska).
Further study. The other study examined a range of compound D1 dose levels (0.05, 0.25, 1 or 5 mg/kg) formulated in a vehicle of 20% SBECD for tumor BRD9 protein levels up to 144 hours post dose. […] BRD9 protein levels were still depleted by 83.4% and 73.2% at 120 hours (5 days) and 144 hours (6 days), respectively, after a single IV administration of 5 mg/kg of compound D1, which corresponds to ˜2.5 mg/kg of compound S-D1.

[1] = system: SYO-1 human biphasic synovial sarcoma tumor; test: SYO-1 synovial sarcoma xenograft efficacy, daily i.p. dosing; type: in vivo; details: 1 mg/kg i.p. daily, 3 weeks; NOD SCID mice
Protocol: Method: NOD SCID mice (Beijing Anikeeper Biotech, Beijing) were inoculated subcutaneously on the right flank with the single cell suspension of SYO-1 human biphasic synovial sarcoma tumor cells (5×106) in 100 μL Dulbecco's Modified Eagle Medium (DMEM) with 10% fetal bovine serum (FBS). The mice were randomized into either control group [10% dimethyl sulfoxide (DMSO), 40% polyethylene glycol (PEG400) and 50% water], or treatment group D1 when the mean tumor size reached about 117 mm^3. Mice were dosed daily through intraperitoneal (i.p.) route over the course of 3 weeks. All dose volumes were adjusted by body weights in terms of mg/kg.

[2] = 1 mg/kg BIW IV, 24 days (compound S-D1)
[3] = 1 mg/kg BIW IV, 24 days (compound D1)

BRD9 degradation activity when proteasome blocked (endogenous BRD9; with 1 μM Bortezomib, a proteasome inhibitor (FIG. 32D, EOL-1 cells)): largely abrogated
Compound: COc1cc(-c2cn(C)c(=O)c3cnc(N4CCC4)cc23)cc(OC)c1CN1CCC(CN2CCC3(CC2)CN(c2ccc4c(c2)C(=O)N([C@H]2CCC(=O)NC2=O)C4)C3)CC1 (single isomer, unassigned) [Compound S-D1]
T/C (%) (SYO-1 tumor; 0.05 mg/kg BIW IV, 24 days): 58.2%
TGI (%) (SYO-1 tumor; 0.05 mg/kg BIW IV, 24 days): 41.8%
Tumor Size (mm^3) on Day 24 (SYO-1 tumor; 0.05 mg/kg BIW IV, 24 days): 1946 ± 123 mm^3
T/C (%) (SYO-1 tumor; [2]): 8.1%
TGI (%) (SYO-1 tumor; [2]): 91.9%
Tumor Size (mm^3) on Day 24 (SYO-1 tumor; [2]): 280 ± 37 mm^3
T/C (%) (SYO-1 tumor; 2 mg/kg QW IV, 24 days): 10.1%
TGI (%) (SYO-1 tumor; 2 mg/kg QW IV, 24 days): 89.9%
Tumor Size (mm^3) on Day 24 (SYO-1 tumor; 2 mg/kg QW IV, 24 days): 341 ± 38 mm^3
tumor response (SYO-1 tumor; 0.25 or 1 mg/kg twice weekly IV, SYO-1 tumor): tumor stasis
Pharmacodynamic activity: tumor BRD9 protein level by western blot (BRD9; SYO-1 xenograft, BALB/c Nude mice, single dose i.v. (Table 6), listed as Enantiomer 2): significant activity; also recorded: degraded BRD9 up to 72 hours after a single dose; also recorded: equipotent to racemic compound D1

Compound: COc1cc(-c2cn(C)c(=O)c3cnc(N4CCC4)cc23)cc(OC)c1CN1CCC(CN2CCC3(CC2)CN(c2ccc4c(c2)C(=O)N(C2CCC(=O)NC2=O)C4)C3)CC1 (racemic) [Compound D1, 3-[6-(7-[[1-([4-[6-(azetidin-1-yl)-2-methyl-1-oxo-2,7-naphthyridin-4-yl]-2,6-dimethoxyphenyl]methyl)piperidin-4-yl]methyl]-2,7-diazaspiro[3.5]nonan-2-yl)-1-oxo-3H-isoindol-2-yl]piperidine-2,6-dione]
tumor growth inhibition [1]: tumor growth inhibition
potency of endogenous BRD9 degradation (western blot) (endogenous BRD9; MDA-MB-231 (breast cancer), OVCAR8 (ovarian cancer) and EOL1 cells): comparable potency
potency of endogenous BRD9 degradation (western blot) (endogenous BRD9; PC-9 (EGFR mutant lung cancer) cells): reduced potency
T/C (%) (SYO-1 tumor; [3]): 12.6%
TGI (%) (SYO-1 tumor; [3]): 87.4%
Tumor Size (mm^3) on Day 24 (SYO-1 tumor; 1 mg/kg BIW IV, 24 days): 426 ± 49 mm^3
tumor BRD9 protein level response (BRD9; 0.05, 0.25, 1 or 5 mg/kg, up to 144 hours post dose): robust and dose- and time-dependent
BRD9 protein levels depleted by (BRD9; 120 hours (5 days) after a single IV administration of 5 mg/kg): 83.4%
BRD9 protein levels depleted by (BRD9; 144 hours (6 days) after a single IV administration of 5 mg/kg): 73.2%
